What was measured:
[1] = tested on: rat high fat, high cholesterol diet model; test: Rat High Fat, High Cholesterol Diet Model; type: in vivo; conditions: HFHC diet rats; for HDL / LDL / VLDL: once daily perorally for seven days, serum VAP analysis, compound 13 at 3, 10, 30 mg/kg; for HDL / LDL / VLDL / blood glucose: compound 10A at 3, 10, or 30 mg/kg, compound 5A at 100 mg/kg; for blood glucose: seven days dosing
Experimental: Fibrate and statin derivatives, alone and in combination, are tested for effects on cholesterol and lipid profiles in a rat high fat diet model for example as described in Ghibaudi et al. (2002) Obes Res 10:956-63, Ricci and Levin (2003) Am J Physiol Regul Integr Comp Physiol 285:R610-8, and Gao et al. (2002) 936:87-90. Alternatively, animals are fed either a normal diet or a chow supplemented with added fat and/or cholesterol as described in Krause et al (1994) Pharm Res Vol 29, No. 4, Nishina (1993) J of Lipid Res vol 43. and Gajda et al. (2007) Animal Lab News. Based on the specific chows used in these reports, we fed animals a diet consisting of 40% fat, 1% cholesterol, and 0.5% cholic acid (catalog #D01061201, Research Diets, New Brunswick, N.J. 08901). After at least a week on this diet, animals (6-8/group) are dosed once daily perorally with 300 uL test compounds in PEG 400 or suitable vehicle. Groups are dosed for at least one week before whole blood samples are taken for analysis. Blood serum is analyzed using Vertical Auto Profile (VAP; Atherotech, Inc., Birmingham, Ala.) analysis similar to as described in Kulkami (2006) Clin Lab Med 26:787-802.
Similarly, when tested in this assay, Compound 5A [(E)-4-(3,5-dimethoxystyryl)phenyl 2-(4-(4-chlorobenzoyl)phenoxy)-2-methylpropanoate] was associated with decreased LDL and VLDL, no change in blood glucose, and increased HDL. Graphical depictions showing the LDL, VLDL and HDL analyses for compounds 10A and 5A are shown in FIGS. 1, 2, and 3 respectively. Compound 13 (4-(nitrooxy)butyl 2-(4-(4-chlorobenzoyl)phenoxy)-2-methylpropanoate) was also tested in this assay. FIGS. 4-6 are graphs showing that Compound 13 decreased LDL (FIG. 4) and VLDL (FIG. 5) and increased HDL (FIG. 6). Fenofibrate was also tested in this assay at 2, 6.8 and 20.5 mg/kg (FIGS. 4-6) which are equimolar equivalents (for the fenofibric acid moiety) of Compound 10A dosed at […]. Similar untested dose equivalent amounts to Compound 13 at 3, 10, and 30 mg/kg would be 2.5, 8.3, and 24.8 mg/kg of fenofibrate. In these experiments animals (n=6 per group) were fed either a normal chow (chow) or high fat high cholesterol chow (HFHC; 40% fat, 1% cholesterol, 0.5% cholic acid) diet for one week before test compound administration. Animals received either no test compound (“naïve”), vehicle only (PEG 400) or test compound (compound 10A at 3, 10, or 30 mg/kg, compound 5A at 100 mg/kg, compound 13 at 3, 10, 30 mg/kg, or fenofibrate at 2, 6.8, or 20.5 mg/kg) for seven days before whole blood samples were taken for analysis. […] Compound 8A may be useful for another contemplated use described herein however.

ob/ob mice [2] = test: Obese (ob/ob) Mouse Model, blood glucose; type: in vivo; conditions: ob/ob mice on high fat chow, perorally once daily for three weeks, days 7, 14, 21; Compound 10A 30 and 100 mg/kg, Compound 121 43 or 1000 mg/kg, fenofibrate 68 mg/kg
Experimental: The increased expression of plasma lipids in ob/ob mice make them a useful model for the study of drugs designed to lower cholesterol. In these experiments animals (n=10 per group) were fed a high fat chow (HF; 60% fat,) for one week before test compound administration and continued on this diet for the duration of the experiment. Animals received either vehicle only (PEG 400), or test compound (Compound 121 (resveratrol) at 43 or 1000 mg/kg, Compound 10A at 30 or 100 mg/kg, or fenofibrate at 68 mg/kg) perorally once daily for a total of three weeks. Blood samples were collected weekly for the determination of fasting glucose levels (One touch Ultra, LifeScan Inc). Blood serum was analyzed after three weeks using Vertical Auto Profile (VAP; Atherotech, Inc., Birmingham, Ala.) analysis similar to as described in Kulkami (2006) Clin Lab Med 26:787-802. […] 43 mg/kg of compound 121 (resveratrol) and 68 mg/kg of fenofibrate are the equimolar equivalents to the amounts of resveratrol and fenofibric acid moieties in 100 mg/kg of Compound 10A. […] FIG. 8 is a pharmacokinetic profile (using the methodologies as described herein) analyzing fenofibric acid levels in blood plasma of ob/ob mice dosed with either 68 mg/kg of fenofibrate, or 30 mg/kg or 100 mg/kg of Compound 10A.

[3] = Pharmacokinetic profile in blood plasma of ob/ob mice (LC/MS-MS); type: in vivo, mouse
Experimental: The increased expression of plasma lipids in ob/ob mice make them a useful model for the study of drugs designed to lower cholesterol. In these experiments animals (n=10 per group) were fed a high fat chow (HF; 60% fat,) for one week before test compound administration and continued on this diet for the duration of the experiment. Animals received either vehicle only (PEG 400), or test compound (Compound 121 (resveratrol) at 43 or 1000 mg/kg, Compound 10A at 30 or 100 mg/kg, or fenofibrate at 68 mg/kg) perorally once daily for a total of three weeks. Blood samples were collected weekly for the determination of fasting glucose levels (One touch Ultra, LifeScan Inc). Blood serum was analyzed after three weeks using Vertical Auto Profile (VAP; Atherotech, Inc., Birmingham, Ala.) analysis similar to as described in Kulkami (2006) Clin Lab Med 26:787-802. […]
(§1) Various pharmacokinetic parameters were calculated by collecting plasma samples from animals dosed with a test compound and analyzed by LC/MS-MS. […] Concentrations were determined by relative responses to an internal standard and calculated based on a standard concentration curve of the test compound. […] Oral Bioavailability (Fn) was calculated using the equation: F=(AUCoral/AUCIV)*DoseIV.Doseoral). Cmax and Tmax are determined by visual inspection of the oral concentration curve. […]

[4] = Pharmacokinetics in rat high fat high cholesterol diet model (LC/MS-MS); type: in vivo; conditions: oral administration, vs compound 121 (resveratrol)
Experimental: Similarly, when tested in this assay, Compound 5A [(E)-4-(3,5-dimethoxystyryl)phenyl 2-(4-(4-chlorobenzoyl)phenoxy)-2-methylpropanoate] was associated with decreased LDL and VLDL, no change in blood glucose, and increased HDL. Graphical depictions showing the LDL, VLDL and HDL analyses for compounds 10A and 5A are shown in FIGS. 1, 2, and 3 respectively. Compound 13 (4-(nitrooxy)butyl 2-(4-(4-chlorobenzoyl)phenoxy)-2-methylpropanoate) was also tested in this assay. FIGS. 4-6 are graphs showing that Compound 13 decreased LDL (FIG. 4) and VLDL (FIG. 5) and increased HDL (FIG. 6). Fenofibrate was also tested in this assay at 2, 6.8 and 20.5 mg/kg (FIGS. 4-6) which are equimolar equivalents (for the fenofibric acid moiety) of Compound 10A dosed at […]. Similar untested dose equivalent amounts to Compound 13 at 3, 10, and 30 mg/kg would be 2.5, 8.3, and 24.8 mg/kg of fenofibrate. […]
as §1

ob/ob mice [5] = conditions: fenofibrate 100 mg/kg; McCarmona et al. (2005); cited from earlier work

| Compound | HDL [1] | LDL [1] | VLDL [1] | blood glucose [1] | blood glucose (fasting), change compared to day 0 (ob/ob mice [2]) | other results |
| --- | --- | --- | --- | --- | --- | --- |
| COc1cc(/C=C/c2ccc(OC(=O)C(C)(C)Oc3ccc(C(=O)c4ccc(Cl)cc4)cc3)cc2)cc(OC)c1 [Compound 5A, (E)-4-(3,5-dimethoxystyryl)phenyl 2-(4-(4-chlorobenzoyl)phenoxy)-2-methylpropanoate] | increased | decreased | decreased | no change | – | – |
| CC(=O)Oc1cc(/C=C/c2ccc(OC(=O)C(C)(C)Oc3ccc(C(=O)c4ccc(Cl)cc4)cc3)cc2)cc(OC(C)=O)c1 [Compound 8A, (E)-5-(4-(2-(4-(4-chlorobenzoyl)phenoxy)-2-methylpropanoyloxy)styryl)-1,3-phenylene diacetate] | – | – | – | – | – | efficacy in rat high fat, high cholesterol diet model [1]: does not show any efficacy; melting point: 112 to 113 °C |
| CC(C)(Oc1ccc(C(=O)c2ccc(Cl)cc2)cc1)C(=O)Oc1ccc(/C=C/c2cc(O)cc(O)c2)cc1.Cl [Compound 10A, (E)-4-(3,5-dihydroxystyryl)phenyl 2-(4-(4-chlorobenzoyl)phenoxy)-2-methylpropanoate] | increased | dose related decreases | dose related decreases | decreased | statistically significant (when compared to day 0) decreases | fenofibric acid exposure in blood plasma ([3]; ob/ob mice, 30 mg/kg Compound 10A as compared to 68 mg/kg fenofibrate): less fenofibric acid exposure; resveratrol pharmacokinetic profile ([3]; obese mouse model, oral administration, 100 mg/kg Compound 10A vs 43 mg/kg compound 121 (resveratrol)): different resveratrol pharmacokinetic profile; resveratrol pharmacokinetic profile [4]: different resveratrol pharmacokinetic profile |
| CC(C)(Oc1ccc(C(=O)c2ccc(Cl)cc2)cc1)C(=O)OCCCCO[N+](=O)[O-] [Compound 13, 4-(nitrooxy)butyl 2-(4-(4-chlorobenzoyl)phenoxy)-2-methylpropanoate] | increased | decreased | decreased | – | – | – |
| Oc1ccc(/C=C/c2cc(O)cc(O)c2)cc1 [Compound 121, (E)-5-(4-hydroxystyryl)benzene-1,3-diol] | – | – | – | – | neither Compound 121 (resveratrol; dosed at 43 or 1000 mg/kg) or fenofibrate (dosed at 68 mg/kg) resulted in statistically significant changes | – |
| CC(C)OC(=O)C(C)(C)Oc1ccc(C(=O)c2ccc(Cl)cc2)cc1 [fenofibrate, 2-[4-(4-chlorobenzoyl)phenoxy]-2-methyl-propanoic acid, 1-methylethyl ester] | – | – | – | – | neither Compound 121 (resveratrol; dosed at 43 or 1000 mg/kg) or fenofibrate (dosed at 68 mg/kg) resulted in statistically significant changes | blood glucose in ob/ob mice (ob/ob mice [5]): shown to decrease blood glucose |
